Measured values reported in PMC9090415, “Discovery of small molecule inhibitors of Plasmodium falciparum apicoplast DNA polymerase” (Journal of Enzyme Inhibition and Medicinal Chemistry, 2022).

Target: P. falciparum apicoplast DNA polymerase (Pf-apPOL) (Plasmodium falciparum, UniProt Q8ILY1)
Experiment: Fluorescence-based high-throughput DNA polymerase assay (molecular beacon), primary screen and dose-response
Type: biochemical
Conditions: for DNA Pol: 90 min, 10 µM
Experimental: The HT assay employs a molecular beacon, a stem-loop DNA template with a Cy3 dye and the Black Hole Quencher on the 3′ and 5′ ends of the DNA, respectively. Pf-apPOL concentration is based on a calculated absorptivity of ε280 = 56750 M^−1 cm^−1. Reactions were carried out at 25 °C, using Corning 3575 […] (well-volume, 20 µL). Assays testing for compound inhibition composed of reaction buffer (pH 7.9 in 50 mM potassium acetate, 20 mM Tris-acetate and 10 mM magnesium acetate), Pf-apPOL (20 nM), DNA substrate (20 nM), dNTPs (6 µM), and compound (10 µM in DMSO). The DNA and nucleotide substrates (dNTPs) were at concentrations of 20 nM and 6 µM, respectively, in the assay. Pf-apPOL was incubated in the reaction buffer with dNTPs and the compound of interest (10 µM, in the assay) at 25 °C for 10 min. The DNA substrate was then added and the reaction was allowed to proceed for 90 min at 25 °C.
Each assay plate contained 16 negative controls (no Pf-apPOL, DMSO present) and 16 positive controls (Pf-apPOL present, no DMSO). The fluorescence of each well was determined using a BioTek Synergy Neo fluorescence plate reader using excitation and emission wavelengths of 555 and 570 nm, respectively.
In the above, Min is the average of fluorescence emission of the negative controls (substrate only), Max the average fluorescence emission from the positive controls (enzyme + substrate), and Test the emission from the assays in the presence of compounds (enzyme + compound + substrates). […] […] The IC50 of each compound was determined using Equation (2): (2) IC50= Vmax/(1+ (I/IC50)^n)
In the above, n measures cooperativity, with n > 1 indicating synergistic binding of more than a single molecule of the compound.
To identify apPOL inhibitors we utilised our previously developed high-throughput DNA polymerase assay. The HT assay is based on a molecular beacon DNA template that forms a stem-loop with a Cy3 dye and the Black Hole Quencher on the 3′ and 5′ ends of the DNA, respectively. DNA polymerase activity extends an annealed primer through the stem region, displacing the fluorophore from the quencher, thereby increasing its fluorescence (Figure 1(A)). The assay accurately recapitulates the kinetic behaviour of apPOL, as measured through more conventional low-throughput gel-based assays. The Z′ factor for the assay described here was 0.9 across all plates (data not shown).
Figure 1. High-throughput screening. (A) The fluorescent-based DNA polymerase assay used to screen the compound libraries. The DNA template strand is a hairpin loop with a primer annealed to the loop. The 3’ end of the primer is 11 bases away from the 6 bp duplex. Strand displacement activity of the DNA polymerase separates the Cy3 dye from the Black hole quencher leading to an increase in fluorescent signal. (B) The high-throughput assay workflow. The DNA polymerase is incubated with […] compound for 10 min prior to addition of the hairpin substrate. The reaction is quenched at 3 different time points and the fluorescent signal is measured and % inhibition is determined using the provided equation.

[1] = primary screen value by plate and well
[2] = primary screen value of the 186 hits, unit not given

P. falciparum apicoplast DNA polymerase (Pf-apPOL), sequence (Q8ILY1 entry or part of it): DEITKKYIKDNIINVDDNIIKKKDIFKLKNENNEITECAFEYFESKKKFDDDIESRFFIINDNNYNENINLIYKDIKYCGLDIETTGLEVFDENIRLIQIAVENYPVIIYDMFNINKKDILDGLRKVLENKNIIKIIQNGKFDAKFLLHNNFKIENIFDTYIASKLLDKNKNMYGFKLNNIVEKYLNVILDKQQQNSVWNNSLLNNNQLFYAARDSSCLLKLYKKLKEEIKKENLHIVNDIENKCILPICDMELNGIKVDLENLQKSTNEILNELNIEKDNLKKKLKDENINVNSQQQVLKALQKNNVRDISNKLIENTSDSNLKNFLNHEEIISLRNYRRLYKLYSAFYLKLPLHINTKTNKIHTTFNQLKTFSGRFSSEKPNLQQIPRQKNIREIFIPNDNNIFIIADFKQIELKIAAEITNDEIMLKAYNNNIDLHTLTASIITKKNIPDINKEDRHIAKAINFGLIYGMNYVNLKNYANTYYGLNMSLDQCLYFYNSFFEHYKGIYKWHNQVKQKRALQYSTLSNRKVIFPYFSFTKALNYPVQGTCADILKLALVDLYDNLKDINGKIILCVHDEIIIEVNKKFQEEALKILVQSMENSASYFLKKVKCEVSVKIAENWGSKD

## COc1ccc(NC(=O)Cn2ccc3c(=O)[nH]ccc32)cc1 [Molecule 13, COc1ccc(cc1)NC(=O)Cn1ccc2c1cc[nH]c2=O]
DRC-1, concentration 2.5
  % inhibition Apo pol 10': 9.9864%
  % inhibition Apol 90': 1.393%
  % inhibition apPOL 180': -3.687%
DRC-1, concentration 5
  % inhibition Apo pol 10': 32.1099%
  % inhibition Apol 90': 18.8368%
  % inhibition apPOL 180': 7.549%
DRC-1, concentration 10
  % inhibition Apo pol 10': 65.6259%
  % inhibition Apol 90': 50.5955%
  % inhibition apPOL 180': 35.4263%
DRC-1, concentration 20
  % inhibition Apo pol 10': 81.849%
  % inhibition Apol 90': 73.6159%
  % inhibition apPOL 180': 60.6819%
DRC-1, concentration 40
  % inhibition Apo pol 10': 89.1437%
  % inhibition Apol 90': 87.1809%
  % inhibition apPOL 180': 82.9961%
DRC-1, concentration 80
  % inhibition Apo pol 10': 82.2361%
  % inhibition Apol 90': 85.204%
  % inhibition apPOL 180': 83.4711%
DRC-2, concentration 2.5
  % inhibition Apo pol 5': 7%
  % inhibition Apol 40': 5.45%
  % inhibition ApPOL 90': 4%
  % inhibition apPOL 180': -2%
DRC-2, concentration 5
  % inhibition Apo pol 5': 18%
  % inhibition Apol 40': 19%
  % inhibition ApPOL 90': 16%
  % inhibition apPOL 180': 7%
DRC-2, concentration 10
  % inhibition Apo pol 5': 37%
  % inhibition Apol 40': 41%
  % inhibition ApPOL 90': 38%
  % inhibition apPOL 180': 27%
DRC-2, concentration 20
  % inhibition Apo pol 5': 47%
  % inhibition Apol 40': 65%
  % inhibition ApPOL 90': 66%
  % inhibition apPOL 180': 63%
DRC-2, concentration 40
  % inhibition Apo pol 5': 45%
  % inhibition Apol 40': 67%
  % inhibition ApPOL 90': 72%
  % inhibition apPOL 180': 74%
DRC-2, concentration 80
  % inhibition Apo pol 5': 40%
  % inhibition Apol 40': 65%
  % inhibition ApPOL 90': 70%
  % inhibition apPOL 180': 76%
conc. 2.5, DRC-2
  % inhibition Apo pol 5': 7%
conc. 5, DRC-2
  % inhibition apPOL 180': 7%
conc. 20, DRC-2
  % inhibition Apol 40': 65%
conc. 80, DRC-2
  % inhibition Apol 40': 65%
[1]
  DNA Pol: 53
[2]
  DNA Pol: 53

## O=c1cc(-c2ccccc2Cl)oc2c(NS(=O)(=O)c3cc(Cl)cc(Cl)c3O)ccc(O)c12 [KU0104277]
DRC-1, concentration 2.5
  % inhibition Apo pol 10': -4.204%
  % inhibition Apol 90': -8.287%
  % inhibition apPOL 180': -13.4888%
DRC-1, concentration 5
  % inhibition Apo pol 10': 6.708%
  % inhibition Apol 90': 2.039%
  % inhibition apPOL 180': -5.423%
DRC-1, concentration 10
  % inhibition Apo pol 10': 7.439%
  % inhibition Apol 90': 0.6918%
  % inhibition apPOL 180': -7.477%
DRC-1, concentration 20
  % inhibition Apo pol 10': 27.5333%
  % inhibition Apol 90': 20.1462%
  % inhibition apPOL 180': 7.115%
DRC-1, concentration 40
  % inhibition Apo pol 10': 73.9275%
  % inhibition Apol 90': 69.1951%
  % inhibition apPOL 180': 55.1056%
DRC-1, concentration 80
  % inhibition Apo pol 10': 90.8547%
  % inhibition Apol 90': 87.9641%
  % inhibition apPOL 180': 83.6554%
DRC-2, concentration 2.5
  % inhibition Apo pol 5': -4%
  % inhibition Apol 40': -1.34%
  % inhibition ApPOL 90': -1%
  % inhibition apPOL 180': -2.11%
DRC-2, concentration 5
  % inhibition Apo pol 5': -2.32%
  % inhibition Apol 40': -1%
  % inhibition ApPOL 90': 0.948%
  % inhibition apPOL 180': -2.49%
DRC-2, concentration 10
  % inhibition Apo pol 5': 35%
  % inhibition Apol 40': 42%
  % inhibition ApPOL 90': 41%
  % inhibition apPOL 180': 33%
DRC-2, concentration 20
  % inhibition Apo pol 5': 11%
  % inhibition Apol 40': 11%
  % inhibition ApPOL 90': 9%
  % inhibition apPOL 180': 3.69%
DRC-2, concentration 40
  % inhibition Apo pol 5': 63%
  % inhibition Apol 40': 74%
  % inhibition ApPOL 90': 75%
  % inhibition apPOL 180': 72%
DRC-2, concentration 80
  % inhibition Apo pol 5': 65%
  % inhibition Apol 40': 75%
  % inhibition ApPOL 90': 76%
  % inhibition apPOL 180': 73%
conc. 2.5, DRC-2
  % inhibition ApPOL 90': -1%
conc. 5, DRC-2
  % inhibition Apol 40': -1%
conc. 20, DRC-2
  % inhibition Apo pol 5': 11%
  % inhibition Apol 40': 11%
conc. 40, DRC-2
  % inhibition ApPOL 90': 75%
conc. 80, DRC-2
  % inhibition Apol 40': 75%
[1]
  DNA Pol: 36
[2]
  DNA Pol: 36

## COc1ccc(-c2cc(=O)c3cc(O)ccc3o2)cc1OC [KU0193655]
DRC-1, concentration 2.5
  % inhibition Apo pol 10': -0.1967%
  % inhibition Apol 90': 2.413%
  % inhibition apPOL 180': 2.832%
DRC-1, concentration 5
  % inhibition Apo pol 10': 8.174%
  % inhibition Apol 90': 7.049%
  % inhibition apPOL 180': 6.576%
DRC-1, concentration 10
  % inhibition Apo pol 10': 18.1231%
  % inhibition Apol 90': 17.1119%
  % inhibition apPOL 180': 16.442%
DRC-1, concentration 20
  % inhibition Apo pol 10': 34.6118%
  % inhibition Apol 90': 31.7706%
  % inhibition apPOL 180': 31.1115%
DRC-1, concentration 40
  % inhibition Apo pol 10': 62.4482%
  % inhibition Apol 90': 60.6022%
  % inhibition apPOL 180': 58.5037%
DRC-1, concentration 80
  % inhibition Apo pol 10': 84.2826%
  % inhibition Apol 90': 83.5295%
  % inhibition apPOL 180': 84.0263%
DRC-2, concentration 2.5
  % inhibition Apo pol 5': -0.529%
  % inhibition Apol 40': 1.36%
  % inhibition ApPOL 90': 0.778%
  % inhibition apPOL 180': -1.88%
DRC-2, concentration 5
  % inhibition Apo pol 5': 0.718%
  % inhibition Apol 40': 3.64%
  % inhibition ApPOL 90': 6%
  % inhibition apPOL 180': 5%
DRC-2, concentration 10
  % inhibition Apo pol 5': 15%
  % inhibition Apol 40': 19%
  % inhibition ApPOL 90': 20%
  % inhibition apPOL 180': 21%
DRC-2, concentration 20
  % inhibition Apo pol 5': 23%
  % inhibition Apol 40': 29%
  % inhibition ApPOL 90': 32%
  % inhibition apPOL 180': 34%
DRC-2, concentration 40
  % inhibition Apo pol 5': 39%
  % inhibition Apol 40': 49%
  % inhibition ApPOL 90': 53%
  % inhibition apPOL 180': 56%
DRC-2, concentration 80
  % inhibition Apo pol 5': 47%
  % inhibition Apol 40': 61%
  % inhibition ApPOL 90': 65%
  % inhibition apPOL 180': 68%
[1]
  DNA Pol: 27
[2]
  DNA Pol: 27
